Entries after “also recorded” stand apart in the source; their conditions may differ. Structures can show the parent of a compound that is named as a salt. Blank lines part the entries; values can stand above or below the compound they belong to. *1 amine or outer side, *2 acyl side, *3 side chain or, on linkers, in order; H or OH if unused. Where a SMILES comes first, the peptide text is derived from it. Bridges are numbered along the chain shown (N, C = ends). Roman numbers before positions name the chains, in order. [ ]: non-standard residue; d: D form. Actinocin(9to1) = Cc1c2oc3c(C)ccc(C(=O)[*:1])c3nc-2c(C(=O)[*:2])c(N)c1=O; NMeV = CN[C@H](C(=O)O)C(C)C; Sar = CNCC(=O)O
Legend:
[1] = system: full thickness porcine skin; test: Tritiated water transport through full thickness porcine skin, side by side diffusion cells, scintillation counting; format: in vitro ADME, pig; details: tritiated water in PBS, F094 10 mg/ml, Avicin D and Avicin G 1 mg/ml, 24 hours
Protocol: In addition, it was desired to access if the known enhancer N-Methyl Pyrrolidinone (NMP) might modulate skin's water permeability when codelivered. […] Each donor compartment solution was loaded with 5 μCi/ml (1 μg/ml) of tritiated (^3H) water. Receiver compartments were sampled at 0.5, 1, 2, 3, 6, 12, 18 and 24 hours.
Likewise, Avicin D and Avicin G solutions contained 1 mg/ml of Avicin D and G respectively, along with PBS and tritiated water (1 μg/ml, 5 μCi/ml).
(§1) Upon receipt, concentrated stock solutions were made in DMSO.

[2] = system: full thickness porcine skin; test: 3H-estradiol transport and percutaneous absorption, full thickness porcine skin, side by side diffusion cells; format: in vitro ADME, pig; details: 3H-estradiol in PBS; F094 5-20 mg/ml, Avicin D and Avicin G 1 mg/ml; 24 hours
Protocol: Each solution was loaded with 5 μCi/ml of 3H-Estradiol (Amersham TRK 322). Receiver compartments were sampled at 0.5 1, 2, 3, 6, 12, 18 and 24 hours.
Likewise, Avicin D and Avicin G solutions contained 1 mg/ml of Avicin D and G respectively, along with PBS and 3H-estradiol (5 μCi/ml).
as §1

[3] = cited from earlier work
[4] = adults with previously untreated chronic myelogenous leukemia; cited from earlier work
[5] = cited from earlier work; remark: listed apart in the source
[6] = system: full thickness pig skin; test: Water soluble anesthetic transport in full thickness pig skin, HPLC quantification; details: for Maximum % Enhancement over control: highest enhancement of the anesthetic's permeability with F094
Source text: (§2) HPLC was used to quantify delivered mass, and to calculate permabilities in lag times. Error bar represents mean+/−standard deviation.
as §2

[7] = Partition coefficient of anesthetics between octanol and water, HPLC; format: physicochemical; details: for Partition coefficient (octanol/water): as listed in Table 4; for Partition Coefficient: octanol/water

SMILES: C=C[C@](C)(O)CC/C=C(\CO)C(=O)O[C@H]1[C@H](O)[C@@H](O)[C@H](O[C@@](C)(C=C)CC/C=C(\CO)C(=O)O[C@H]2C[C@]3(C(=O)O[C@@H]4O[C@H](CO)[C@@H](O)[C@H](O)[C@H]4O[C@@H]4O[C@@H](C)[C@H](O[C@@H]5O[C@@H](CO)[C@H](O)[C@H]5O)[C@@H](O[C@@H]5O[C@H](CO)[C@@H](O)[C@H](O)[C@H]5O)[C@H]4O)[C@H](O)C[C@]4(C)C(=CC[C@@H]5[C@@]6(C)CC[C@H](O[C@@H]7O[C@H](CO[C@@H]8O[C@H](C)[C@H](O)[C@H](O)[C@H]8O[C@@H]8OC[C@@H](O)[C@H](O)[C@H]8O)[C@@H](O)[C@H](O)[C@H]7NC(C)=O)C(C)(C)[C@@H]6CC[C@]54C)[C@@H]3CC2(C)C)O[C@@H]1C [Avicin D]
effect on water transport / water permeability of skin [1]: potent enhancer of water and estradiol permeability through the skin; also recorded: increases water permeability of skin as compared to Avicin G
effect on water transport / water permeability of skin ([1]; listed as avicin D): differentially enhance water permeability
effect on estradiol transport / estradiol permeability of skin [2]: potent enhancer of water and estradiol permeability through the skin; also recorded: increase estradiol permeability of skin as compared to Avicin G

SMILES: CC[C@]1(O)C[C@@H]2CN(CCc3c([nH]c4ccccc34)[C@@](C(=O)OC)(c3cc4c(cc3OC)N(C)[C@H]3[C@@](O)(C(=O)OC)[C@H](OC(C)=O)[C@]5(CC)C=CCN6CC[C@]43[C@@H]65)C2)C1 [vinblastine, Vinblastine]
plasma half-life after distribution (first) ([3]; after intravenous injection): approximately 1 hours
plasma half-life after distribution (second) ([3]; after intravenous injection): ~72000 s
oral / gastrointestinal absorption ([3]; in vivo, po): Unpredictable absorption

SMILES: COc1cccc2c1C(=O)c1c(O)c3c(c(O)c1C2=O)C[C@@](O)(C(C)=O)C[C@@H]3O[C@H]1C[C@H](N)[C@H](O)[C@H](C)O1 [Daunorubicin]
oral / gastrointestinal absorption ([3]; in vivo, po): Oral absorption is poor

SMILES: CS(=O)(=O)OCCCCOS(C)(=O)=O [Busulfan, 1,4-butanediol dimethanesulfonate]
hematologic remission with regression or stabilization of organomegaly [4]: Approximately 90%

SMILES: CC[C@@]1(O)C(=O)OCc2c1cc1n(c2=O)Cc2cc3ccccc3nc2-1 [camptothecin, Camptothecin]
solubility in water [5]: poor water-solubility
storage stability ([5]; stored at 2-8° C. in a dry, airtight, light-resistant environment): stable for at least two years

SMILES: CC[C@]1(O)C[C@H]2CN(CCc3c([nH]c4ccccc34)[C@@](C(=O)OC)(c3cc4c(cc3OC)N(C=O)[C@H]3[C@@](O)(C(=O)OC)[C@H](OC(C)=O)[C@]5(CC)C=CCN6CC[C@]43[C@@H]65)C2)C1 [vincristine, Vincristine]
oral / gastrointestinal absorption ([3]; in vivo, po): Unpredictable absorption

SMILES: N.N.[Cl][Pt][Cl] [Cisplatin]
oral / gastrointestinal absorption ([3]; in vivo, po): not absorbed orally

SMILES: O=NN(CCCl)C(=O)NC1CCCCC1 [Lomustine, 1-(2-chloro-ethyl)-3-cyclohexyl-1 nitrosourea]
radioactivity excreted in the form of degradation products ([3]; in vivo, po): about half

Permeability [6]: 0.71 ± 0.05 × 10^−3 (cm/hr)
Lag time ([6]; female, pig): 10.8 ± 1.1 h
Partition coefficient (octanol/water) [7]: 1.7
Partition Coefficient ([7]; 0 mg/ml F094): 3.3 ± 0.4
Partition Coefficient ([7]; 1 mg/ml F094): 3.6 ± 0.5
Partition Coefficient ([7]; 5 mg/ml F094): 4.1 ± 0.3
Partition Coefficient ([7]; 10 mg/ml F094): 3.5 ± 0.8
SMILES: CCCCN1CCCCC1C(=O)Nc1c(C)cccc1C (stereo not drawn) [Bupivacaine HCl]
Maximum % Enhancement over control [6]: 347%

SMILES: C=C[C@](C)(O)CC/C=C(\C)C(=O)O[C@H]1[C@H](O)[C@@H](O)[C@H](O[C@@](C)(C=C)CC/C=C(\CO)C(=O)O[C@H]2C[C@]3(C(=O)O[C@@H]4O[C@H](CO)[C@@H](O)[C@H](O)[C@H]4O[C@@H]4O[C@@H](C)[C@H](O[C@@H]5O[C@@H](CO)[C@H](O)[C@H]5O)[C@@H](O[C@@H]5O[C@H](CO)[C@@H](O)[C@H](O)[C@H]5O)[C@H]4O)[C@H](O)C[C@]4(C)C(=CC[C@@H]5[C@@]6(C)CC[C@H](O[C@@H]7O[C@H](CO[C@@H]8O[C@H](C)[C@H](O)[C@H](O)[C@H]8O[C@@H]8OC[C@@H](O)[C@H](O)[C@H]8O)[C@@H](O)[C@H](O)[C@H]7NC(C)=O)C(C)(C)[C@@H]6CC[C@]54C)[C@@H]3CC2(C)C)O[C@@H]1C [Avicin G]
effect on water transport / water permeability of skin [1]: inhibits water transport in comparison to Avicin D; also recorded: differentially enhance water permeability

Permeability [6]: 0.46 ± 0.11 × 10^−3 (cm/hr)
Partition coefficient (octanol/water) [7]: 0.43
Partition Coefficient ([7]; 0 mg/ml F094): 0.47 ± 0.03
Partition Coefficient ([7]; 1 mg/ml F094): 0.43 ± 0.02
Partition Coefficient ([7]; 5 mg/ml F094): 0.51 ± 0.02
Partition Coefficient ([7]; 10 mg/ml F094): 0.50 ± 0.01
SMILES: CCCNC(C)C(=O)Nc1ccccc1C (stereo not drawn) [Prilocaine HCl]
Maximum % Enhancement over control [6]: 228%

SMILES: Cc1c2oc3c(C)ccc(C(=O)N[C@@H]4C(=O)N[C@H](C(C)C)C(=O)N5CCC[C@H]5C(=O)N(C)CC(=O)N(C)[C@@H](C(C)C)C(=O)O[C@@H]4C)c3nc-2c(C(=O)N[C@@H]2C(=O)N[C@H](C(C)C)C(=O)N3CCC[C@H]3C(=O)N(C)CC(=O)N(C)[C@@H](C(C)C)C(=O)O[C@@H]2C)c(N)c1=O [Actinomycin D] (I: T[dV]P[Sar][NMeV] / II: T[dV]P[Sar][NMeV]; ester I:1-I:C, II:1-II:C; linker I:N-II:N via Actinocin(9to1))
share of the dose excreted intact into the bile ([3]; in vivo): Half of the dose

SMILES: COc1cccc2c1C(=O)c1c(O)c3c(c(O)c1C2=O)C[C@@](O)(C(=O)CO)C[C@@H]3O[C@H]1C[C@H](N)[C@H](O)[C@H](C)O1 [Doxorubicin, 5,12-Naphthacenedione, (8s-cis)-10-[(3-amino-2,3,6-trideoxy-a-L-lyxo-hexopyranosyl)oxy]-7,8,9,10-tetrahydro-6,8,11-trihydroxy-8-(hydroxyacetyl)-1-methoxy-hydrochloride]
oral / gastrointestinal absorption ([3]; in vivo, po): absorbed poorly

SMILES: O=C(O)CCCc1ccc(N(CCCl)CCCl)cc1 [Chlorambucil, 4-[bis(2-chlorethyl)amino]benzenebutanoic acid]
oral / gastrointestinal absorption ([3]; in vivo, po): rapidly and completely absorbed from the gastrointestinal tract
terminal half-life ([3]; plasma): ~1.5 h
